Measurements published in patent publication US20230233569A1 (Revolution Medicines, Inc., priority 2020, published 2023).
Like-named read-outs stand apart in the source and are kept apart here.

Experiments:
NCI-H358 (K-Ras G12C) = assay: CellTiter-Glo cell viability assay, 5-day treatment; assay type: cell-based; details: Homo sapiens, NCI-H358, H358, K-Ras G12C; read-out: Additional H358 Cell Viability assay data (K-Ras G12C, IC50)
How it was run: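 Five-day compound treatment of plated cells; luminescent read after ~30 min at RT. Percent-of-DMSO data fit to a four-parameter logistic model.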

[1] = tested on: K-Ras G12C (NCI-H358 cells); assay: Potency assay: pERK (AlphaLISA SureFire or In-Cell Western); assay type: cell-based; details: Homo sapiens
Method: (§1) The purpose of this assay is to measure the ability of test compounds to inhibit K-Ras in cells. […] This procedure measures a decrease in cellular pERK in response to test compounds.
(§2) NCI-H358 cells were grown and maintained using media and procedures recommended by the ATCC. On the day prior to compound addition, cells were plated in 384-well cell culture plates (40 μl/well) and grown overnight in a 37° C., 5% CO2 incubator. Test compounds were prepared in 10, 3-fold dilutions in DMSO, with a high concentration of 10 mM. On the day of assay, 40 nL of test compound was added to each well of cell culture plate using an Echo550 liquid handler (LabCyte®). Concentrations of test compound were tested in duplicate. After compound addition, cells were incubated 4 hours at 37° C., 5% CO2. Following incubation, culture medium was removed and cells were washed once with phosphate buffered saline.
(§3) In some experiments, cellular pERK level was determined using the AlphaLISA SureFire Ultra p-ERK1/2 Assay Kit (PerkinElmer). Cells were lysed in 25 μL lysis buffer, with shaking at 600 RPM at room temperature. […] After a 2-hour incubation in the dark, 5 μL donor mix was added, plate was sealed, and incubated 2 hours at room temperature. Signal was read on an Envision plate reader (PerkinElmer) using standard AlphaLISA settings. Analysis of raw data was carried out in Excel (Microsoft) and Prism (GraphPad). Signal was plotted vs. the decadal logarithm of compound concentration, and IC50 was determined by fitting a 4-parameter sigmoidal concentration response model.
In other experiments, cellular pERK was determined by In-Cell Western. […] Fixed cells were washed 4 times for 5 minutes with TBS containing 0.1% Triton X-100 (TBST) and then blocked with 100 μL Odyssey blocking buffer (LI-COR) for 60 minutes at room temperature. […] Cells were washed 4 times for 5 minutes with TBST. Secondary antibody (IR-800CW rabbit, LI-COR, diluted 1:800) and DNA stain DRAQ5 (LI-COR, diluted 1:2000) were added and incubated 1-2 hours at room temperature. Cells were washed 4 times for 5 minutes with TBST. Plates were scanned on a LI-COR Odyssey CLx Imager. Analysis of raw data was carried out in Excel (Microsoft) and Prism (GraphPad). Signal was plotted vs. the decadal logarithm of compound concentration, and IC50 was determined by fitting a 4-parameter sigmoidal concentration response model.
as §1
as §2, with “mM. On day of” for “mM. On the day of”, “assay, 40 nl of test” for “assay, 40 nL of test”
as §3, with “μl” for “μL”, “sealed” for “sealed,”

KRAS G13C = KRAS G13C (Homo sapiens, UniProt P01116+P62937, G13C); assay: Disruption of BRAF RBD interaction with Ras (FRET / MOA assay, with Cyclophilin A); assay type: biochemical
Sequence of KRAS G13C (P01116 1-169 isoform P01116-2 G13C): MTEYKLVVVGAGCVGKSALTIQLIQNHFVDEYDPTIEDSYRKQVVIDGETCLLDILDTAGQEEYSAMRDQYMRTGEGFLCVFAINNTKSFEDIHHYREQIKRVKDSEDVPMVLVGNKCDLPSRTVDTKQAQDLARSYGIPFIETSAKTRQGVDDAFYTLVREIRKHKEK
Sequence of KRAS G13C (P62937 whole entry): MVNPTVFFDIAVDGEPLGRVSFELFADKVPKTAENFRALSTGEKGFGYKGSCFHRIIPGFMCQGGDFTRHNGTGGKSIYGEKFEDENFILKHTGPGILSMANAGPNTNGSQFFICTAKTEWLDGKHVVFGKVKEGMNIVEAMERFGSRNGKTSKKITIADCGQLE
How it was run: (§4)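 TR-FRET readout: a drop in ratio relative to DMSO wells marks disruption of the K-Ras:BRAF RBD complex via compound-induced K-Ras–Cyclophilin A ternary complex. Dosing used ten 3-fold steps from 30 μM final, 3 h at 25 °C, then Eu-anti-His 10 nM plus APC-anti-GST 50 nM for another 1.5 h. Values are IC50s.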

KRAS G13D = KRAS G13D (Homo sapiens, UniProt P01116+P62937, G13D); assay: as above; assay type: biochemical
Sequence of KRAS G13D (P01116 1-169 isoform P01116-2 G13D limits assumed): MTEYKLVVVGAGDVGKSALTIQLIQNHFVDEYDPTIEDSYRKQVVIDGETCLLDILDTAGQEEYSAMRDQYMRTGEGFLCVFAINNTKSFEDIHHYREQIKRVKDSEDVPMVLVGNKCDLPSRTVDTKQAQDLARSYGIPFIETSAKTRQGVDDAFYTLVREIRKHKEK
Sequence of KRAS G13D (P62937 whole entry): as the sequence (P62937 whole entry) above
How it was run: as §4

KRAS G12S = KRAS G12S (Homo sapiens, UniProt P01116+P62937, G12S); assay: as above; assay type: biochemical
Sequence of KRAS G12S (P01116 1-169 isoform P01116-2 G12S limits assumed): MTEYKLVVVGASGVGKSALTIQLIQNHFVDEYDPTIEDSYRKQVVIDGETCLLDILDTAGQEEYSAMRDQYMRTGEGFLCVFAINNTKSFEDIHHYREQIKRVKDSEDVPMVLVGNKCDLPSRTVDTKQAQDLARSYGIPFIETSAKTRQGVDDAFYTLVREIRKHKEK
Sequence of KRAS G12S (P62937 whole entry): as the sequence (P62937 whole entry) above
How it was run: as §4

KRAS G12V = KRAS G12V (Homo sapiens, UniProt P01116+P62937, G12V); assay: as above; assay type: biochemical
Sequence of KRAS G12V (P01116 1-169 isoform P01116-2 G12V limits assumed): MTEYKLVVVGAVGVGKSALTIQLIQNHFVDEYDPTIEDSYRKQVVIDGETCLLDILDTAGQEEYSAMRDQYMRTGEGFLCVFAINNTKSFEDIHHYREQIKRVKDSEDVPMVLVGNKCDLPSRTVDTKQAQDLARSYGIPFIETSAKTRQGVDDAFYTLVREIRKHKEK
Sequence of KRAS G12V (P62937 whole entry): as the sequence (P62937 whole entry) above
How it was run: as §4

NRAS G12C = NRAS G12C (Homo sapiens, UniProt P01111+P62937, G12C); assay: as above; assay type: biochemical
Sequence of NRAS G12C (P01111 whole entry G12C): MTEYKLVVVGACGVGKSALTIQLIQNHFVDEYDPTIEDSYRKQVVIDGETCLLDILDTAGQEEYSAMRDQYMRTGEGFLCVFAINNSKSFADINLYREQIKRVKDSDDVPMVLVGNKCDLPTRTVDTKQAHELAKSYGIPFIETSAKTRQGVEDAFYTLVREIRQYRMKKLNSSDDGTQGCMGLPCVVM
Sequence of NRAS G12C (P62937 whole entry): as the sequence (P62937 whole entry) above

KRAS G12C = KRAS G12C (Homo sapiens, UniProt P01116+P62937, G12C); assay: as above; assay type: biochemical
Sequence of KRAS G12C (P01116 1-169 isoform P01116-2 G12C): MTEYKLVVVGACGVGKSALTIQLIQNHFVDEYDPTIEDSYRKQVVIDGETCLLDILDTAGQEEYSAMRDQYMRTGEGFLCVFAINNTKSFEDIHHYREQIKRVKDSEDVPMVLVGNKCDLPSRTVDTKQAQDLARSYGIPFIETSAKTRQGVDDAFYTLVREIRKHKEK
Sequence of KRAS G12C (P62937 whole entry): as the sequence (P62937 whole entry) above
How it was run: as §4

KRAS G12D = KRAS G12D (Homo sapiens, UniProt P01116+P62937, G12D); assay: as above; assay type: biochemical
Sequence of KRAS G12D (P01116 1-169 isoform P01116-2 G12D limits assumed): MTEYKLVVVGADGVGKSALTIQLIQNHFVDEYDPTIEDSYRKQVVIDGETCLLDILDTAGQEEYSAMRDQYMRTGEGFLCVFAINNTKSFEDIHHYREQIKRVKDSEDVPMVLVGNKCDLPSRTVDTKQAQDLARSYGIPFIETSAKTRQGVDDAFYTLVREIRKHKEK
Sequence of KRAS G12D (P62937 whole entry): as the sequence (P62937 whole entry) above
How it was run: as §4

KRAS WT = KRAS WT (Homo sapiens, UniProt P01116+P62937); assay: as above; assay type: biochemical
Sequence of KRAS WT (P01116 1-169 isoform P01116-2 limits assumed): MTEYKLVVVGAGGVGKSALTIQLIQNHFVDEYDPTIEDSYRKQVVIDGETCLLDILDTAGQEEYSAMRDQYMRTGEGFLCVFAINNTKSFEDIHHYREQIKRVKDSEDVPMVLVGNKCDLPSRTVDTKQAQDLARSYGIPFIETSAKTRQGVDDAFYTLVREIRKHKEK
Sequence of KRAS WT (P62937 whole entry): as the sequence (P62937 whole entry) above
How it was run: as §4

[2] = NCI-H358, H358 KRAS G12C, read-out: pERK EC50
[3] = KRAS G13C, read-out: KRAS G13C FRET data IC50
[4] = KRAS G13D, read-out: KRAS G13D FRET data IC50
[5] = read-out: KRAS G12S FRET data, IC50
[6] = KRAS G12V, read-out: KRAS G12V FRET data IC50
[7] = NRAS G12C, read-out: NRAS G12C FRET data IC50
[8] = KRAS G12C, read-out: KRAS G12C FRET data IC50
[9] = read-out: KRAS G12D FRET data, IC50
[10] = KRAS WT, read-out: KRAS WT FRET data IC50

SMILES: CCn1c(-c2cccnc2[C@H](C)OC)c2c3cc(ccc31)-c1cc(sn1)C[C@H](NC(=O)[C@H](C(C)C)N(C)C(=O)[C@@H]1CCN(C(=O)C#CCN3CCOCC3)C1)C(=O)N1CCC[C@H](N1)C(=O)OCC(C)(C)C2 [Example A201]
- IC50 (NCI-H358 (K-Ras G12C)): 10 to 100 nM
- EC50 [1, 2]: < 5 µM
- IC50 (KRAS G13C; [3]): 1000 to 10000 nM
- IC50 (KRAS G13D; [4]): > 10 µM
- IC50 (KRAS G12S; [5]): > 10 µM
- IC50 (KRAS G12V; [6]): > 10 µM
- IC50 (NRAS G12C; [7]): 100 to 1000 nM
- IC50 (KRAS G12C; [8]): 10 to 100 nM
- IC50 (KRAS G12D; [9]): > 10 µM
- IC50 (KRAS WT; [10]): > 10 µM

SMILES: C=CC(=O)N1CC[C@H](C(=O)N(C)[C@H](C(=O)N[C@H]2Cc3cc(O)cc(c3)-c3ccc4c(c3)c(c(-c3cccnc3[C@H](C)OC)n4C)CC(C)(C)COC(=O)[C@@H]3CCCN(N3)C2=O)C(C)C)C1 [Example A197]
- IC50 (NCI-H358 (K-Ras G12C)): 10 to 100 nM
- EC50 [1, 2]: < 5 µM
- IC50 (KRAS G13C; [3]): 1000 to 10000 nM
- IC50 (KRAS G13D; [4]): 1 to 10 µM
- IC50 (KRAS G12S; [5]): 1 to 10 µM
- IC50 (KRAS G12V; [6]): 1 to 10 µM
- IC50 (NRAS G12C; [7]): 100 to 1000 nM
- IC50 (KRAS G12C; [8]): 100 to 1000 nM
- IC50 (KRAS G12D; [9]): > 10 µM
- IC50 (KRAS WT; [10]): 1 to 10 µM

SMILES: CCn1c(-c2cccnc2COC)c2c3cc(ccc31)-c1cc(O)cc(c1)C[C@H](NC(=O)[C@@H](C(C)C)N(C)C(=O)[C@H]1CCN(C(=O)C#CCN(C)C)C1)C(=O)N1CCC[C@H](N1)C(=O)OCC(C)(C)C2 [Example A156]
- IC50 (NCI-H358 (K-Ras G12C)): 10 to 100 nM
- EC50 [1, 2]: < 5 µM
- IC50 (KRAS G13C; [3]): 1000 to 10000 nM
- IC50 (KRAS G13D; [4]): 1 to 10 µM
- IC50 (KRAS G12S; [5]): > 10 µM
- IC50 (KRAS G12V; [6]): > 10 µM
- IC50 (NRAS G12C; [7]): 100 to 1000 nM
- IC50 (KRAS G12C; [8]): 10 to 100 nM
- IC50 (KRAS G12D; [9]): 1 to 10 µM
- IC50 (KRAS WT; [10]): > 10 µM

SMILES: CCn1c(-c2cncnc2)c2c3cc(ccc31)-c1cc(O)cc(c1)C[C@H](NC(=O)[C@H](C(C)C)N(C)C(=O)[C@H]1CCN(C(=O)C#CCN(C)C)C1)C(=O)N1CCC[C@H](N1)C(=O)OCC(C)(C)C2 [Example A108]
- IC50 (NCI-H358 (K-Ras G12C)): < 10 nM
- EC50 [1, 2]: < 5 µM
- IC50 (KRAS G13C; [3]): 10 to 100 nM
- IC50 (KRAS G13D; [4]): 1 to 10 µM
- IC50 (KRAS G12S; [5]): 1 to 10 µM
- IC50 (KRAS G12V; [6]): 1 to 10 µM
- IC50 (NRAS G12C; [7]): < 10 nM
- IC50 (KRAS G12C; [8]): < 10 nM
- IC50 (KRAS G12D; [9]): 1 to 10 µM
- IC50 (KRAS WT; [10]): 1 to 10 µM

SMILES: C=CC(=O)N1CC[C@H](C(=O)N(C)[C@H](C(=O)N[C@H]2Cc3cccc(c3)-c3ccc4c(c3)c(c(-c3cccnc3[C@H](C)OC)n4CC)CC(C)(C)COC(=O)[C@@H]3CCCN(O3)C2=O)C(C)C)C1 [Example A284]
- IC50 (NCI-H358 (K-Ras G12C)): 100 to 1000 nM
- EC50 ([1]; NCI-H358, read-out: pERK EC50): < 5 µM
- IC50 (KRAS G13C; KRAS G13C FRET data IC50, KRAS G13C): 1000 to 10000 nM
- IC50 (KRAS G13D; KRAS G13D FRET data IC50, KRAS G13D): > 10 µM
- IC50 (KRAS G12S; KRAS G12S FRET data, IC50): > 10 µM
- IC50 (KRAS G12V; KRAS G12V FRET data IC50, KRAS G12V): > 10 µM
- IC50 (NRAS G12C; NRAS G12C FRET data IC50, NRAS G12C): 1000 to 10000 nM
- IC50 (KRAS G12C; KRAS G12C FRET data IC50, KRAS G12C): 100 to 1000 nM
- IC50 (KRAS G12D; KRAS G12D FRET data, IC50): > 10 µM
- IC50 (KRAS WT; KRAS WT FRET data IC50, KRAS WT): > 10 µM

SMILES: CCn1c(-c2cccnc2COC)c2c3cc(ccc31)-c1cc(O)cc(c1)C[C@H](NC(=O)[C@@H](C(C)C)N(C)C(=O)[C@H]1CCN(C(=O)C#CC(C)N3CCOCC3)C1)C(=O)N1CCC[C@H](N1)C(=O)OCC(C)(C)C2 (some centres unmarked) [Example A200]
- IC50 (NCI-H358 (K-Ras G12C)): 100 to 1000 nM
- EC50 [1, 2]: < 5 µM
- IC50 (KRAS G13C; [3]): 1000 to 10000 nM
- IC50 (KRAS G13D; [4]): > 10 µM
- IC50 (KRAS G12S; [5]): > 10 µM
- IC50 (KRAS G12V; [6]): > 10 µM
- IC50 (NRAS G12C; [7]): 10 to 100 nM
- IC50 (KRAS G12C; [8]): 10 to 100 nM
- IC50 (KRAS G12D; [9]): > 10 µM
- IC50 (KRAS WT; [10]): > 10 µM

SMILES: CCn1c(-c2cccnc2[C@H](C)OC)c2c3cc(ccc31)-c1csc(n1)C[C@H](NC(=O)[C@H](C(C)C)N(C)C(=O)[C@H]1CCN(C(=O)/C=C/CN(C)C)C1)C(=O)N1CCC[C@H](N1)C(=O)OCC(C)(C)C2 [Example A282]
- IC50 (NCI-H358 (K-Ras G12C)): 10 to 100 nM
- EC50 [1, 2]: < 5 µM
- IC50 (KRAS G13C; [3]): 1000 to 10000 nM
- IC50 (KRAS G13D; [4]): 1 to 10 µM
- IC50 (KRAS G12S; [5]): 1 to 10 µM
- IC50 (KRAS G12V; [6]): 1 to 10 µM
- IC50 (NRAS G12C; [7]): 100 to 1000 nM
- IC50 (KRAS G12C; [8]): 100 to 1000 nM
- IC50 (KRAS G12D; [9]): 1 to 10 µM
- IC50 (KRAS WT; [10]): 1 to 10 µM

SMILES: CCn1c(-c2cccnc2COC)c2c3cc(ccc31)-c1cc(O)cc(c1)C[C@H](NC(=O)[C@H](C(C)C)N(C)C(=O)[C@H]1CCN(C(=O)/C=C\CN(C)C)C1)C(=O)N1CCC[C@H](N1)C(=O)OCC(C)(C)C2 [Example A164]
- IC50 (NCI-H358 (K-Ras G12C)): 100 to 1000 nM
- EC50 [1, 2]: < 5 µM
- IC50 (KRAS G13C; [3]): 100 to 1000 nM
- IC50 (KRAS G13D; [4]): 0.1 to 1 µM
- IC50 (KRAS G12S; [5]): 0.1 to 1 µM
- IC50 (KRAS G12V; [6]): 0.1 to 1 µM
- IC50 (NRAS G12C; [7]): 10 to 100 nM
- IC50 (KRAS G12C; [8]): 10 to 100 nM
- IC50 (KRAS G12D; [9]): 1 to 10 µM
- IC50 (KRAS WT; [10]): 0.1 to 1 µM
